Values after ≈ are worked out from the molar mass of the structure shown.
Experiments:
[1] = metabolite profiling of pooled plasma after single IV dose of the mono-phosphate derivative, monkey; conditions: single IV dose of mono-phosphate derivative (1.3 and 3.9 mg/kg), LC/UV/MS
Procedure: (§1) In this study, 5, 15, 30 min, 1, 2, 4, 6, 8 and 24 hr plasma samples were collected following a single IV dose of the mono-phosphate derivative (1.3 and 3.9 mg/kg) to mice, rats and monkeys. Equal volume (100 μL) of samples from 5, 15, 30 min and 1, 2, 4 hr and 6, 8, 24 hr time points from each subject (n=3) were pooled from the two dosing groups. Aliquots (900 μL) of pooled plasma were mixed with 2700 μL of cold acetonitrile and centrifuged at 3200×g for 10 minutes. The resulting supernatants were transferred to clean tubes and evaporated to dryness in a TurboVap LV at ambient temperature under a slow stream of nitrogen. The dried extracts were reconstituted with 300 μL of 20:80 acetonitrile:water (v/v). The samples were then analyzed by LC/UV/MS for metabolite profiling and characterization. LC-ESI/MS in negative ionization mode was used to acquire mass spectral data.

[2] = test system: Albino BALBc mice, cecal ligation puncture (CLP); experiment: cecal ligation puncture (mCLP) model, 7-day survival; format: in vivo
Procedure: The cecal ligation puncture (CLP) procedure was derived from a modification of standard methods previously described. Female, non-pregnant, specific pathogen-free, Albino BALBc mice (20-25 gm) were used in this experiment. The test compound (n=8 in each group) or corn oil control (n=12) were randomized to a treatment protocol consisting of 50 mg/kg of either the test compound or similar volume of corn oil at the time of CLP (time 0) and 24 and 48 hours following surgery. Animals were allowed to eat and drink sterile water on an ad libitum basis until 12 h before surgery when food was withheld until after the surgical procedure.
Anesthetized animals (methoxyflurane, Mallinckodt Veterninary Inc., Mundeline, Ill.) had the abdominal skin shaved and a midline, abdominal incision was made. The cecum was exteriorized and distended using intraluminal contents from the colon. The cecum was then ligated below the ileocecal valve and punctured twice using a 23-gauge sterile needle. The cecum was returned to the peritoneal cavity and the transversalis fascia was closed along with the skin incision. The skin incision was covered with topical bacitracin ointment. The animals were given a single […] dose of trovafloxacin (20 mg/kg IM) immediately post-operatively and a 1-mL subcutaneous dose of PBS was given as fluid resuscitation. […] All animals underwent necropsy examination for histological evidence of organ injury, pathology scoring of intestinal mucosa and quantitative bacteriology.
Differences in survival time between groups were analyzed by Kaplan-Meier survival plots and log-rank testing. Other parameters were measured using a Mann-Whitney U-Test for 2 groups or the Kruskal-Wallis one way analysis of variance for 3 or more groups. A p value of <0.05 was considered significant. All data is presented as mean and standard deviation.
The root compound (ERB-041) was dosed IV in the mCLP model, at 1 and 3 mg/kg at 24, 48 and 72 hours after induction of peritonitis. This therapeutic IV administration in mCLP confirmed attenuation of lung injury and cytokine/chemokine responses and attenuation of the subsequent clinical course, respectively.^5 achieving 7-day survival of 95 and 90% in the 3 and 1 mg/kg groups.
The 1 and 3 mg/kg doses were different from vehicle (0.05).

[3] = metabolite profiling of pooled plasma after single IV dose of the mono-phosphate derivative, rat; conditions: single IV dose of mono-phosphate derivative (1.3 and 3.9 mg/kg), LC/UV/MS
Procedure: as §1

[4] = aqueous solubility at pH 7.4; format: physicochemical; conditions: aqueous medium at pH 7.4 (buffer not specified), pH 7.4, aqueous buffer
[5] = metabolite profiling of pooled plasma after single IV dose of the mono-phosphate derivative, mouse; conditions: single IV dose of mono-phosphate derivative (1.3 and 3.9 mg/kg), LC/UV/MS
Procedure: as §1

IV pharmacokinetics = format: in vivo
Procedure: as §1

[6] = 1 mg/kg IV at 24, 48 and 72 hours after surgery / induction of peritonitis
[7] = 3 mg/kg IV at 24, 48 and 72 hours after surgery / induction of peritonitis

Structure (SMILES) | Metabolites of phosphate prodrug characterized in plasma: Monkey [1] | 7-day survival [2, 6] [%] | 7-day survival [2, 7] [%] | lung injury and cytokine/chemokine responses ([2]; 1 and 3 mg/kg IV at 24, 48 and 72 hours after induction of peritonitis) | Metabolites of phosphate prodrug characterized in plasma: Rat [3] | solubility [4] [µg/mL] | Metabolites of phosphate prodrug characterized in plasma: Mouse [5] | 7-day survival ([2]; 0.3 mg/kg IV at 24, 48 and 72 hours after surgery) [%] | minimally effective dose in mCLP ([2]; IV) [mg/kg] | IV pharmacokinetics (IV pharmacokinetics)
C=Cc1cc(O)cc2nc(-c3ccc(O)c(F)c3)oc12 [ERB-041, 2-(3-fluoro-4-hydroxyphenyl)-7-vinyl-1,3-benzoxazol-5-ol, reference compound] | Yes | 90 | 95 | attenuation | Yes | 4 (≈ 14.7 µM) | Yes |  |  | 
C=Cc1cc(O)cc2nc(-c3ccc(OP(=O)(O)O)c(F)c3)oc12 [Mono-Phosphate derivative of ERB 041, 2-fluoro-4-(5-hydroxy-7-vinylbenzo[d]oxazol-2-yl)phenyl dihydrogen phosphate] | Yes | 60 | 60 |  | Yes | > 100 | Yes | 40 | 1 | reasonable
